# Results from publication PMC3639963, “A New Class of Small Molecule Inhibitor of BMP Signaling” (PLoS ONE, 2013).
# Legend:
# Test in all cases: Nanosyn kinase profiling
# Assay type in all cases: biochemical
# Details in all cases: read-out: Percentage inhibition; for inhibition at 0.1 µM: 0.1 µM inhibitor; for inhibition at 1 µM: 1 µM inhibitor
# CHEK2 = target: T1, CHEK2 (Homo sapiens, UniProt O96017)
# T1 construct: purchased Nanosyn (enzymatic panel); SGC in-house recombinant human kinases (DSF panel); Invitrogen (ALK1-6)
# T1 sequence (O96017 whole entry): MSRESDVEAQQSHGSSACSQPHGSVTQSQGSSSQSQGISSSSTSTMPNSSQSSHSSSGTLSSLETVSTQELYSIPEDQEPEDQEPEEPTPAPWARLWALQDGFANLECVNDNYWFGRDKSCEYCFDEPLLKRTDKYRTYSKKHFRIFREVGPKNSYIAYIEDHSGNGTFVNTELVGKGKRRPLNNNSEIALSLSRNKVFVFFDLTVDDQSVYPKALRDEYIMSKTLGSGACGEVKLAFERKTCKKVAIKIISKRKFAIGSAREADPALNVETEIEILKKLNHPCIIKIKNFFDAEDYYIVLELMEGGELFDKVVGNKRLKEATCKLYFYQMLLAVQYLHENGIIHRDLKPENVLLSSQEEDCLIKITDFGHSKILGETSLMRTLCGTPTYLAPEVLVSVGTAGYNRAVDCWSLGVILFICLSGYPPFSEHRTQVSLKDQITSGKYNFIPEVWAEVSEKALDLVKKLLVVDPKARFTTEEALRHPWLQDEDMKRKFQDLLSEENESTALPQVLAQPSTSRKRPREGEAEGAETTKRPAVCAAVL
# In short: (§1)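 Percent inhibition of each kinase was measured with the inhibitor at 0.1 µM and at 1 µM, as part of a 200-kinase human selectivity panel.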
# CLK2 = target: T2, CLK2 (Homo sapiens, UniProt P49760)
# T2 construct: purchased Nanosyn (enzymatic panel); SGC in-house recombinant human kinases (DSF panel); Invitrogen (ALK1-6)
# T2 sequence (P49760 whole entry): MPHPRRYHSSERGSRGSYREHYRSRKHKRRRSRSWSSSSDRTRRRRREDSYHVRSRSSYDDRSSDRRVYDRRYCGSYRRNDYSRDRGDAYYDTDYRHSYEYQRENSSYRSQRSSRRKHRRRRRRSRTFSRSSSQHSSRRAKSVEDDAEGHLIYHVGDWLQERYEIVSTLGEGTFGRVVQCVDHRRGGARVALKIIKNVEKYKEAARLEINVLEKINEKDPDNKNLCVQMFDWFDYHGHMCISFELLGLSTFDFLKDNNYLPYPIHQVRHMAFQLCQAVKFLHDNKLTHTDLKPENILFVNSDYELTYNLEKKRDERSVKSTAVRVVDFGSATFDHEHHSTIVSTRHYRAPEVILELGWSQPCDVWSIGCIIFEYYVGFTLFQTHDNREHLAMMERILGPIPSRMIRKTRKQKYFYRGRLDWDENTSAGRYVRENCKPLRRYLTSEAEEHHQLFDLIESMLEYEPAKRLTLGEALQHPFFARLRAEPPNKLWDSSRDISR
# In short: as §1
# MST4 = target: T3, MST4 (Homo sapiens, UniProt Q9P289)
# T3 construct: purchased Nanosyn (enzymatic panel); SGC in-house recombinant human kinases (DSF panel); Invitrogen (ALK1-6)
# T3 sequence (Q9P289 whole entry): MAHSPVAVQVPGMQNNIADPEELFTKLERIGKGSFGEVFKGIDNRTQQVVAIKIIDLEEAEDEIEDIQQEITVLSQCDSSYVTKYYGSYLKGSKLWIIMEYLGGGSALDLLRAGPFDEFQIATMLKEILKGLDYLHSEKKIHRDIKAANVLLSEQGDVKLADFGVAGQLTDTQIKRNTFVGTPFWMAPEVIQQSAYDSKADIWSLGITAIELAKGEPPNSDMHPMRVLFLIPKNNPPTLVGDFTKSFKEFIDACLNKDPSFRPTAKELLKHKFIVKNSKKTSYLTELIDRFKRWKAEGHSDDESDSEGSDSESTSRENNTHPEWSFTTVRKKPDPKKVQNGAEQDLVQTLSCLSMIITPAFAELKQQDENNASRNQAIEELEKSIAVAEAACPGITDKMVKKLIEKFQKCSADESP
# In short: as §1
# P38γ = target: T4, P38γ (Homo sapiens, UniProt P53778)
# T4 construct: purchased Nanosyn (enzymatic panel); SGC in-house recombinant human kinases (DSF panel); Invitrogen (ALK1-6)
# T4 sequence (P53778 1-367): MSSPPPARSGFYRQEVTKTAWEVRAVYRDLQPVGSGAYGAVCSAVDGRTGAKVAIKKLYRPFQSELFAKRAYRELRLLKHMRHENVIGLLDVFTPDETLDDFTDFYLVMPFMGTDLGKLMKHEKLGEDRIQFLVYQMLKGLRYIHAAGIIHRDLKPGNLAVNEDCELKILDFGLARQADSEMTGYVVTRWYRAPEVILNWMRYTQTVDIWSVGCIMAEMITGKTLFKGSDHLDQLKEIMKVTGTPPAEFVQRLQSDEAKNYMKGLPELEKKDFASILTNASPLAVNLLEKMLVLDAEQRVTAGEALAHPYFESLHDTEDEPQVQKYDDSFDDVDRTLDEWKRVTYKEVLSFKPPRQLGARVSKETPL
# In short: as §1
# PAK1 = target: T5, PAK1 (Homo sapiens, UniProt Q13153)
# T5 construct: purchased Nanosyn (enzymatic panel); SGC in-house recombinant human kinases (DSF panel); Invitrogen (ALK1-6)
# T5 sequence (Q13153 whole entry): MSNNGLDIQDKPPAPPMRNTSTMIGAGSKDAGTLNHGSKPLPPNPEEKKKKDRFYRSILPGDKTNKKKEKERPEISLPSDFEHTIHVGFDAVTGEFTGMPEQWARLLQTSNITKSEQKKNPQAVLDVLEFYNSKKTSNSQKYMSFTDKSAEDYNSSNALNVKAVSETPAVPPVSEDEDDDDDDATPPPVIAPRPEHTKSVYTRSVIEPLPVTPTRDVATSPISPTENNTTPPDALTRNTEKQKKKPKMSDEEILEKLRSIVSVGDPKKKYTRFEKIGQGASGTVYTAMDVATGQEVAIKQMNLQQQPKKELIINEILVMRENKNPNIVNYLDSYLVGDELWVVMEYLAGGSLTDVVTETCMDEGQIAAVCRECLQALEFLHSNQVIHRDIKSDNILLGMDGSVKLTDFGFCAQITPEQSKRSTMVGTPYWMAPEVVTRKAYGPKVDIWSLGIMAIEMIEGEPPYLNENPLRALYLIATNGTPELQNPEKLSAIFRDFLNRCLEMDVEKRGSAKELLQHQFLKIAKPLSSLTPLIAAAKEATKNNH
# In short: as §1
# PAK3 = target: T6, PAK3 (Homo sapiens, UniProt O75914)
# T6 construct: purchased Nanosyn (enzymatic panel); SGC in-house recombinant human kinases (DSF panel); Invitrogen (ALK1-6)
# T6 sequence (O75914 whole entry): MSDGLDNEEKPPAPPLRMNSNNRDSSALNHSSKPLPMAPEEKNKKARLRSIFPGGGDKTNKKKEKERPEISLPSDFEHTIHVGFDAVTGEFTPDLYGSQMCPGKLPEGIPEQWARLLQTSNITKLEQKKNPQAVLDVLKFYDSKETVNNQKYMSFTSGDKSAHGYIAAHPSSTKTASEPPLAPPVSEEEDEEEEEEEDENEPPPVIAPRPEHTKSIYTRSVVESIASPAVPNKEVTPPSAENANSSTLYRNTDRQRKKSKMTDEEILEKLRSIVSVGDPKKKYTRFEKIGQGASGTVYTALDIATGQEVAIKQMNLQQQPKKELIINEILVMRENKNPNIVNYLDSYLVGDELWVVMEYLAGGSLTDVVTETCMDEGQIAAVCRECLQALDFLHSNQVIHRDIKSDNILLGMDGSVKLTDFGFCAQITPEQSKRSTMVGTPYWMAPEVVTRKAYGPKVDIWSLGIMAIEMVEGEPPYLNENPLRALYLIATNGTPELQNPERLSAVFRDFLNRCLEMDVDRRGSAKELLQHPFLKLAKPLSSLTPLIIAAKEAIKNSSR
# In short: as §1
# PAK5 = target: T7, PAK5 (Homo sapiens, UniProt Q9P286)
# T7 construct: purchased Nanosyn (enzymatic panel); SGC in-house recombinant human kinases (DSF panel); Invitrogen (ALK1-6)
# In short: as §1
# PASK = target: T8, PASK (Homo sapiens, UniProt Q96RG2)
# T8 construct: purchased Nanosyn (enzymatic panel); SGC in-house recombinant human kinases (DSF panel); Invitrogen (ALK1-6)
# In short: as §1
# PDGFRα = target: T9, PDGFRα (Homo sapiens, UniProt P16234)
# T9 construct: purchased Nanosyn (enzymatic panel); SGC in-house recombinant human kinases (DSF panel); Invitrogen (ALK1-6)
# T9 sequence (P16234 24-1089): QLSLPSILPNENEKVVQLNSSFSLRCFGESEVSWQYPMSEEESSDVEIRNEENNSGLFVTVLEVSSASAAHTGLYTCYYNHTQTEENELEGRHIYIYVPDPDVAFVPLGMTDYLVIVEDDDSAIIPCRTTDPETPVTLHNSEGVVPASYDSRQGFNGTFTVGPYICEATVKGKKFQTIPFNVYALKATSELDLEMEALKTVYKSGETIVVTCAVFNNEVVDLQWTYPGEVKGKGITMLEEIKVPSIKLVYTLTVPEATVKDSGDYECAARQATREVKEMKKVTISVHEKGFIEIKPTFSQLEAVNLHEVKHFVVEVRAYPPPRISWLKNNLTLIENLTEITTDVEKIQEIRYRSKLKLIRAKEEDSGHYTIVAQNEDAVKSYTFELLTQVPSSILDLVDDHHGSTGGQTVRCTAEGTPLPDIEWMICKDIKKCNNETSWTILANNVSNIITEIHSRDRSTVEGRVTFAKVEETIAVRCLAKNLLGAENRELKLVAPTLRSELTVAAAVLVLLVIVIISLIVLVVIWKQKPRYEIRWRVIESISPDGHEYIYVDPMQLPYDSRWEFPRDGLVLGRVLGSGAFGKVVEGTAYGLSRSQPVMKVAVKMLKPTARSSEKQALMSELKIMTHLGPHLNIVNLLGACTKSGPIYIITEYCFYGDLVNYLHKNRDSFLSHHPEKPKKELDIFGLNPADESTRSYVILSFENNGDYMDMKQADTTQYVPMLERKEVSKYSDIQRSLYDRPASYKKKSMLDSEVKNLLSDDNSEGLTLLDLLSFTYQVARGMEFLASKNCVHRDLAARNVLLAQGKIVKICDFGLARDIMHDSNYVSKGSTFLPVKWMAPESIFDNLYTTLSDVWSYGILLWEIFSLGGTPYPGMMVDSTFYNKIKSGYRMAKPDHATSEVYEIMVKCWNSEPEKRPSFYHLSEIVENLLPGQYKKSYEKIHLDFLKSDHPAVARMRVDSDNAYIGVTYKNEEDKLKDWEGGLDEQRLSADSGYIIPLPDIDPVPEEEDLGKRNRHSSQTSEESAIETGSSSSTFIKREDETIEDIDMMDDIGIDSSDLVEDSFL
# In short: as §1
# ROS = target: T10, ROS (Homo sapiens, UniProt P08922)
# T10 construct: purchased Nanosyn (enzymatic panel); SGC in-house recombinant human kinases (DSF panel); Invitrogen (ALK1-6)
# In short: as §1
# RSK4 = target: T11, RSK4 (Homo sapiens, UniProt Q9UK32)
# T11 construct: purchased Nanosyn (enzymatic panel); SGC in-house recombinant human kinases (DSF panel); Invitrogen (ALK1-6)
# T11 sequence (Q9UK32 whole entry): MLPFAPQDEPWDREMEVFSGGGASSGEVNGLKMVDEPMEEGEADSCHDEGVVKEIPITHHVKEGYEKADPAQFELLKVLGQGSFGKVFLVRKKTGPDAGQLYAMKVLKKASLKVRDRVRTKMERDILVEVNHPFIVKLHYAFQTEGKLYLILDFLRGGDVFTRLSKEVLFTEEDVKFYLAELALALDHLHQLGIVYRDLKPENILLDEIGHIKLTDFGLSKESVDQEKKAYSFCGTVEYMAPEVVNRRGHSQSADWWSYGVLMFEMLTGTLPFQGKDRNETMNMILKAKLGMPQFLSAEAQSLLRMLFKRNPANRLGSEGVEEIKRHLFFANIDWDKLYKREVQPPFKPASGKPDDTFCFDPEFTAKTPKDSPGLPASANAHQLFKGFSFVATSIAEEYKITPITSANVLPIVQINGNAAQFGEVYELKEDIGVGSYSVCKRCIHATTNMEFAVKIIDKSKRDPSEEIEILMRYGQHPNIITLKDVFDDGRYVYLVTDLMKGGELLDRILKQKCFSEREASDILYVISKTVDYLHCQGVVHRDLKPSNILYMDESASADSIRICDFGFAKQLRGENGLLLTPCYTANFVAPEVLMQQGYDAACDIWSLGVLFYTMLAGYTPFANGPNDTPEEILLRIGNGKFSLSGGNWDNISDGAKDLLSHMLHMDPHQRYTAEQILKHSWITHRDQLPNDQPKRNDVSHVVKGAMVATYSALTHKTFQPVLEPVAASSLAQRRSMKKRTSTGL
# In short: as §1
# SRPK1 = target: T12, SRPK1 (Homo sapiens, UniProt Q96SB4)
# T12 construct: purchased Nanosyn (enzymatic panel); SGC in-house recombinant human kinases (DSF panel); Invitrogen (ALK1-6)
# T12 sequence (Q96SB4 whole entry): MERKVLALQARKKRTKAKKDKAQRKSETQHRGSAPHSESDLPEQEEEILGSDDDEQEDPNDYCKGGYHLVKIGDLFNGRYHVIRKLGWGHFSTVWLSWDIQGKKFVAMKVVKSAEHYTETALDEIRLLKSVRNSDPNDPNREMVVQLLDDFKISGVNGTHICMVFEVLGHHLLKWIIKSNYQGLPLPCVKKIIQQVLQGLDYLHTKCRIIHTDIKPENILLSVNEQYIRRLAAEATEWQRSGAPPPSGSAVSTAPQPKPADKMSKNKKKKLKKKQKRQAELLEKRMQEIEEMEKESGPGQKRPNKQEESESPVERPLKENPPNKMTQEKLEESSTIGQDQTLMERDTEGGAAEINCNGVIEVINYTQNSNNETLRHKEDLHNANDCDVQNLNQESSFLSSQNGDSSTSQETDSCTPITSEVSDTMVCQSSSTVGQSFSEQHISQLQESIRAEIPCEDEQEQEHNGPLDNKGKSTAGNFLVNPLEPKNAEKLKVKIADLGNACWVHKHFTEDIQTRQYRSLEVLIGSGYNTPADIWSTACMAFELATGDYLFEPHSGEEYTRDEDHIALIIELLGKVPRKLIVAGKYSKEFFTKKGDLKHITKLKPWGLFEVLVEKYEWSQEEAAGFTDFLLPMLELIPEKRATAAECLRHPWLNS
# In short: as §1
# TTK = target: T13, TTK (Homo sapiens, UniProt P33981)
# T13 construct: purchased Nanosyn (enzymatic panel); SGC in-house recombinant human kinases (DSF panel); Invitrogen (ALK1-6)
# T13 sequence (P33981 1-857): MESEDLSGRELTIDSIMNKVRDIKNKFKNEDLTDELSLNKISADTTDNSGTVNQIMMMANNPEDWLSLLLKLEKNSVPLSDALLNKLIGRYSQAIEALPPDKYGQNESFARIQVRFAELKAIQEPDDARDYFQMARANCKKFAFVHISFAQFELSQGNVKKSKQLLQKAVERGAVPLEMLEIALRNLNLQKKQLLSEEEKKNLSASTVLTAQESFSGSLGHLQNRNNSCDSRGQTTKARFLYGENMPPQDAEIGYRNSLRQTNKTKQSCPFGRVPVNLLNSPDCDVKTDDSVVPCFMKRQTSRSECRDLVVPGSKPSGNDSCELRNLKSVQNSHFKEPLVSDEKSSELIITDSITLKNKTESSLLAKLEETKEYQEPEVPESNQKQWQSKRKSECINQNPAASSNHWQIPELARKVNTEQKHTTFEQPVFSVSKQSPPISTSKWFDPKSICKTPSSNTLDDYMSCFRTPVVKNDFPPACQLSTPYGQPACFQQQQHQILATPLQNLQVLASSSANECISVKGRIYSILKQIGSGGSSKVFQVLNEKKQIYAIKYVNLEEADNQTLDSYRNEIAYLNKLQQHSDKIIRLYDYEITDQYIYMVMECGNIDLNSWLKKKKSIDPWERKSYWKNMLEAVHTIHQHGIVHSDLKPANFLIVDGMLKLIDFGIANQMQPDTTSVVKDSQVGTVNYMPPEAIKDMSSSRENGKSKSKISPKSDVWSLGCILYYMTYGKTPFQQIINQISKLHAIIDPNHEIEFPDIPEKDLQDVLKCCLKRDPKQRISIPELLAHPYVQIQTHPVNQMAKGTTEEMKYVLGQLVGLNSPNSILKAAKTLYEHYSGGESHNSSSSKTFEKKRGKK
# In short: as §1
SMILES,inhibition at 0.1 µM (CHEK2) [%],inhibition at 1 µM (CHEK2) [%],inhibition at 0.1 µM (CLK2) [%],inhibition at 1 µM (CLK2) [%],inhibition at 0.1 µM (MST4) [%],inhibition at 1 µM (MST4) [%],inhibition at 0.1 µM (P38γ) [%],inhibition at 1 µM (P38γ) [%],inhibition at 0.1 µM (PAK1) [%],inhibition at 1 µM (PAK1) [%],inhibition at 0.1 µM (PAK3) [%],inhibition at 1 µM (PAK3) [%],inhibition at 0.1 µM (PAK5) [%],inhibition at 1 µM (PAK5) [%],inhibition at 0.1 µM (PASK) [%],inhibition at 1 µM (PASK) [%],inhibition at 0.1 µM (PDGFRα) [%],inhibition at 1 µM (PDGFRα) [%],inhibition at 0.1 µM (ROS) [%],inhibition at 1 µM (ROS) [%],further results
c1ccc2c(-c3cnn4cc(-c5ccc(N6CCNCC6)cc5)cnc34)ccnc2c1 [LDN-193189],1.5,2,2.3,35,-1,-5,1.2,1.3,4.3,4.9,2.9,1.8,6.2,8.5,1.9,1.4,18,56,3.8,3.7,inhibition at 0.1 µM (RSK4): 0.8%; inhibition at 1 µM (RSK4): 3.8%; inhibition at 0.1 µM (SRPK1): -1%; inhibition at 1 µM (SRPK1): -2%; inhibition at 0.1 µM (TTK): 4.5%; inhibition at 1 µM (TTK): 7.6%
"COc1cc(-c2cc(-c3cccc(O)c3)cnc2N)cc(OC)c1OC [K02288, 3-[6-amino-5-(3,4,5-trimethoxy-phenyl)-pyridin-3-yl]-phenol]",-1,2.5,0,0,0.4,0,-1,-1,0,0.6,-3,-2,-1,-1,1.1,0.6,5.3,37,1.8,6.8,inhibition at 0.1 µM (RSK4): 0.1%; inhibition at 1 µM (RSK4): 1%; inhibition at 0.1 µM (SRPK1): 3.2%; inhibition at 1 µM (SRPK1): 2.7%; inhibition at 0.1 µM (TTK): -4%; inhibition at 1 µM (TTK): -1%
